Patent US20210094933A1, “RAPAFUCIN DERIVATIVE COMPOUNDS AND METHODS OF USE THEREOF” (The Johns Hopkins University, priority 2019, published 2021)
Numbered stars: 1 amine (or outer) side, 2 acyl side, 3 side chain; on linkers, the order of the positions; unused ones are H or OH. Bridge positions count the residues as written; N and C are the ends. Square brackets hold non-standard residues; d marks the D form. Peptide text beside a SMILES is read from it. * marks the point of attachment. X3 = COc1ccc(CC[C@H](O[*:2])c2cccc(OCC(=O)[*:1])c2)cc1OC; X2 = CN(CCC=CC(=O)OCC(C)(C)C(=O)C(=O)[*:2])[*:1]; 2Nal = N[C@@H](Cc1ccc2ccccc2c1)C(=O)O; dNMeNle = CCCC[C@@H](NC)C(=O)O; dNMeS = CN[C@H](CO)C(=O)O; dPip = O=C(O)[C@H]1CCCCN1; Sar = CNCC(=O)O; tBu = CC(C)(C)*

Key:
Type in all cases: cell-based
[1] = Cell proliferation assay, single concentration, response relative to DMSO; cell line indicated in each table; conditions: for Rel. Prolif., NCI-H929: NCI-H929 cells
Procedure: (§1) Cell Proliferation Assay (Prolif.) Guo et al. (2018) Nat. Chem. 11:254-63. Specific cell lines are indicated in each assay and cultured in complete growth media. Activity is scored according to the IC50 values relative to DMSO control. “Low” indicates an IC50 greater than 600 nM, “Medium” indicates an IC50 between 300 nM and 600 nM “High” indicates an IC50 less than 300 nM. “Rel.Uptake” refers to uptake activity characterization relative to a single concentration assay. “Low” indicates a response greater than 0.6 times the activity relative to DMSO, “Medium” indicates a response between 0.6 and 0.3 times the activity relative to DMSO, “High” indicates a response less than 0.3 times the activity relative to DMSO.

[2] = tested on: H929; test: Cell proliferation assay (Prolif.), IC50 relative to DMSO control; conditions: H929 cells; for Prolif. H929: class relative to DMSO control; for Prolif, H929: IC50 class relative to DMSO control
Procedure: as §1

[3] = Nucleoside uptake assay, single concentration (Rel.Uptake), response relative to DMSO; cell line indicated in each table; conditions: 293 T cells, nucleoside uptake at single concentration
Procedure: Nucleoside Uptake Assay (uptake). Nuceloside uptake assays were performed with using 3H-Thymidine as described in Guo et al. (2018) Nat. Chem, 11:254-63. Specific cell lines are indicated in each assay and cultured in complete growth media. Activity is scored according to the IC50 values relative to DMSO control. “Low” indicates an IC50 greater than 600 nM, “Medium” indicates an IC50 between 300 nM and 600 nM “High” indicates an IC50 less than 300 nM. “Rel.Uptake” refers to uptake activity characterization relative to a single concentration assay. “Low” indicates a response greater than 0.6 times the activity relative to DMSO, “Medium” indicates a response between 0.6 and 0.3 times the activity relative to DMSO, “High” indicates a response less than 0.3 times the activity relative to DMSO.

| Compound | Rel. Prolif., A549 ([1]; A549 cells) | Rel. Prolif., NCI-H929 [1] | Prolif. H929 [2] | Rel. Uptake, 293 T [3] | Prolif, H929 [2] |
| --- | --- | --- | --- | --- | --- |
| CCCC[C@@H]1C(=O)N[C@@H](Cc2ccc3ccccc3c2)C(=O)N(C)[C@H](COC(C)(C)C)C(=O)NCC(=O)N(C)CCC=CC(=O)OCC(C)(C)C(=O)C(=O)N2CCCC[C@@H]2C(=O)O[C@@H](CCc2ccc(OC)c(OC)c2)c2cccc(c2)OCC(=O)N(C)CC(=O)N1C [Compound 1] ([Sar][dNMeNle][2Nal][dNMeS](tBu)G[X2][dPip]; linker N-C via X3) | low | – | – | – | – |
| COc1ccc(CC[C@H]2OC(=O)[C@@H]3CCCCN3C(=O)C(=O)C(C)(C)COC(=O)C=CCCN(C)C(=O)[C@@H](Cc3ccccc3)NC(=O)CN(C)C(=O)[C@@H](Cc3ccccc3)NC(=O)[C@H](Cc3ccc(OC(=O)N4CCOCC4)cc3)N(C)C(=O)COc3cccc2c3F)cc1OC [Compound 867] | – | low | high | – | – |
| COc1ccc(CC[C@H]2OC(=O)[C@@H]3CCCCN3C(=O)C(=O)C(C)(C)COC(=O)C=CCCN(C)C(=O)[C@@H](Cc3ccccc3)NC(=O)CN(C)C(=O)[C@@H](Cc3ccccc3)NC(=O)[C@H](Cc3ccc(OC(=O)N4CCOCC4)cc3)N(C)C(=O)COc3cc(F)cc2c3)cc1OC [Compound 868] | – | low | low | – | – |
| COc1cc(CC[C@H]2OC(=O)[C@@H]3CCCCN3C(=O)C(=O)C(C)(C)COC(=O)C=CCCN(C)C(=O)[C@@H](Cc3ccccc3)NC(=O)CN(C)C(=O)[C@@H](Cc3ccccc3)NC(=O)[C@H](Cc3ccc(O)cc3)N(C)C(=O)COc3cccc2c3)cc(OC)c1OC [Compound 1566] | – | – | – | medium | medium |
| COc1cc(CC[C@H]2OC(=O)[C@@H]3CCCCN3C(=O)C(=O)C(C)(C)COC(=O)C=CCCN(C)C(=O)[C@@H](Cc3ccccc3)NC(=O)CN(C)C(=O)[C@@H](Cc3ccccc3)NC(=O)[C@H](Cc3ccc(O)cc3)N(C)C(=O)COc3cccc2c3)cc(O)c1OC [Compound 1567] | – | – | – | medium | medium |
| COc1cc(O)c(CC[C@H]2OC(=O)[C@@H]3CCCCN3C(=O)C(=O)C(C)(C)COC(=O)C=CCCN(C)C(=O)[C@@H](Cc3ccccc3)NC(=O)CN(C)C(=O)[C@@H](Cc3ccccc3)NC(=O)[C@H](Cc3ccc(O)cc3)N(C)C(=O)COc3cccc2c3)cc1OC [Compound 1568] | – | – | – | low | low |
| COc1cc(CC[C@H]2OC(=O)[C@@H]3CCCCN3C(=O)C(=O)C(C)(C)COC(=O)C=CCCN(C)C(=O)[C@@H](Cc3ccccc3)NC(=O)CN(C)C(=O)[C@@H](Cc3ccccc3)NC(=O)[C@H](Cc3ccc(O)cc3)N(C)C(=O)COc3cccc2c3)cc(F)c1OC [Compound 1569] | – | – | – | low | low |
| COc1cc(F)c(CC[C@H]2OC(=O)[C@@H]3CCCCN3C(=O)C(=O)C(C)(C)COC(=O)C=CCCN(C)C(=O)[C@@H](Cc3ccccc3)NC(=O)CN(C)C(=O)[C@@H](Cc3ccccc3)NC(=O)[C@H](Cc3ccc(O)cc3)N(C)C(=O)COc3cccc2c3)cc1OC [Compound 1570] | – | – | – | medium | medium |
| COc1ccc(CC[C@H]2OC(=O)[C@@H]3CCCCN3C(=O)C(=O)C(C)(C)COC(=O)C=CCCN(C)C(=O)[C@@H](Cc3ccccc3)NC(=O)CN(C)C(=O)[C@@H](Cc3ccccc3)NC(=O)[C@H](Cc3ccc(O)cc3)N(C)C(=O)COc3cccc2c3)c(F)c1OC [Compound 1571] | – | – | – | low | low |
| COc1ccc(CC[C@H]2OC(=O)[C@@H]3CN(C(=O)OCC4c5ccccc5-c5ccccc54)CCN3C(=O)C(=O)C(C)(C)COC(=O)C=CCCN(C)C(=O)[C@@H](Cc3ccccc3)NC(=O)CN(C)C(=O)[C@@H](Cc3ccccc3)NC(=O)[C@H](Cc3ccc(O)cc3)N(C)C(=O)COc3cccc2c3)cc1OC [Compound 1572] | – | – | – | low | low |
| COc1ccc(CC[C@H]2OC(=O)[C@@H]3CNCCN3C(=O)C(=O)C(C)(C)COC(=O)C=CCCN(C)C(=O)[C@@H](Cc3ccccc3)NC(=O)CN(C)C(=O)[C@@H](Cc3ccccc3)NC(=O)[C@H](Cc3ccc(O)cc3)N(C)C(=O)COc3cccc2c3)cc1OC [Compound 1573] | – | – | – | low | low |
| COc1ccc(CC[C@H]2OC(=O)[C@@H]3CN(C)CCN3C(=O)C(=O)C(C)(C)COC(=O)C=CCCN(C)C(=O)[C@@H](Cc3ccccc3)NC(=O)CN(C)C(=O)[C@@H](Cc3ccccc3)NC(=O)[C@H](Cc3ccc(O)cc3)N(C)C(=O)COc3cccc2c3)cc1OC [Compound 1574] | – | – | – | low | low |
| COc1ccc(CC[C@H]2OC(=O)[C@@H]3CCCCN3C(=O)C(=O)C(C)(C)COC(=O)C=CCCN(C)C(=O)[C@@H](Cc3ccccc3)NC(=O)CN(C)C(=O)[C@@H](Cc3ccccc3)NC(=O)[C@H](Cc3ccc(O)cc3)N(C)C(=O)COc3ccc(F)c2c3)cc1OC [Compound 1575] | – | – | – | low | low |
| COc1ccc(CC[C@H]2OC(=O)[C@@H]3CCCCN3C(=O)C(=O)C(C)(C)COC(=O)C=CCCN(C)C(=O)[C@@H](Cc3ccccc3)NC(=O)CN(C)C(=O)[C@@H](Cc3ccccc3)NC(=O)[C@H](Cc3ccc(O)cc3)N(C)C(=O)COc3cc(F)cc2c3)cc1OC [Compound 1576] | – | – | – | medium | medium |
| COc1ccc(CC[C@H]2OC(=O)[C@@H]3CCCCN3C(=O)C(=O)C(C)(C)COC(=O)C=CCCN(C)C(=O)[C@@H](Cc3ccccc3)NC(=O)CN(C)C(=O)[C@@H](Cc3ccccc3)NC(=O)[C@H](Cc3ccc(O)cc3)N(C)C(=O)COc3cccc2c3)c(OC)c1OC [Compound 1577] | – | – | – | medium | medium |
| COc1ccc(CC[C@H]2OC(=O)[C@@H]3CCCCN3C(=O)C(=O)C(C)(C)COC(=O)C=CCCN(C)C(=O)[C@@H](Cc3ccccc3)NC(=O)CN(C)C(=O)[C@@H](Cc3ccccc3)NC(=O)[C@H](Cc3ccc(O)cc3)N(C)C(=O)COc3cc2ccc3F)cc1OC [Compound 1578] | – | – | – | low | low |
| COc1ccc(CC[C@H]2OC(=O)[C@@H]3CCCCN3C(=O)C(=O)C(C)(C)COC(=O)C=CCCN(C)C(=O)[C@@H](Cc3ccccc3)NC(=O)CN(C)C(=O)[C@@H](Cc3ccccc3)NC(=O)[C@H](Cc3ccc(O)cc3)N(C)C(=O)COc3cccc2c3F)cc1OC [Compound 1579] | – | – | – | medium | medium |
| COc1ccc(CC[C@H]2OC(=O)[C@@H]3CCCCN3C(=O)C(=O)C(C)(C)COC(=O)C=CCCN(C)C(=O)[C@@H](Cc3ccccc3)NC(=O)CN(C)C(=O)[C@@H](Cc3ccccc3)NC(=O)[C@H](Cc3ccc(O)cc3)N(C)C(=O)COc3cncc2c3)cc1OC [Compound 1580] | – | – | – | low | low |
| COc1cc(OC)c(OC)cc1CC[C@H]1OC(=O)[C@@H]2CCCCN2C(=O)C(=O)C(C)(C)COC(=O)C=CCCN(C)C(=O)[C@@H](Cc2ccccc2)NC(=O)CN(C)C(=O)[C@@H](Cc2ccccc2)NC(=O)[C@H](Cc2ccc(O)cc2)N(C)C(=O)COc2cccc1c2 [Compound 1581] | – | – | – | medium | medium |
| COc1cc(CC[C@H]2OC(=O)[C@@H]3CCCCN3C(=O)C(=O)C(C)(C)COC(=O)C=CCCN(C)C(=O)[C@@H](Cc3ccccc3)NC(=O)CN(C)C(=O)[C@@H](Cc3ccccc3)NC(=O)[C@H](Cc3ccc(O)cc3)N(C)C(=O)COc3cccc2c3)c(OC)c(OC)c1 [Compound 1582] | – | – | – | low | low |
| COc1ccc(OC)c(OC)c1CC[C@H]1OC(=O)[C@@H]2CCCCN2C(=O)C(=O)C(C)(C)COC(=O)C=CCCN(C)C(=O)[C@@H](Cc2ccccc2)NC(=O)CN(C)C(=O)[C@@H](Cc2ccccc2)NC(=O)[C@H](Cc2ccc(O)cc2)N(C)C(=O)COc2cccc1c2 [Compound 1583] | – | – | – | low | low |
| COc1ccc(CC[C@H]2OC(=O)[C@@H]3CCCCN3C(=O)C(=O)C(C)(C)COC(=O)C=CCCN(C)C(=O)[C@@H](Cc3ccccc3)NC(=O)CN(C)C(=O)[C@@H](Cc3ccccc3)NC(=O)[C@H](Cc3ccc(O)cc3)N(C)C(=O)COc3cccc2c3)c(O)c1OC [Compound 1584] | – | – | – | low | low |
| COc1ccc(CC[C@H]2OC(=O)[C@@H]3CCCCN3C(=O)C(=O)C(C)(C)COC(=O)C=CCCN(C)C(=O)[C@@H]3CCCN3C(=O)[C@H](COC(C)(C)C)N(C)C(=O)[C@@H](c3ccccc3)NC(=O)[C@H](C)N(C)C(=O)COc3cc(F)cc2c3)cc1OC [Compound 1595] | – | – | – | Low (“Low” indicates a response greater than 0.6 times the activity relative to DMSO) | – |
| COc1ccc(CC[C@H]2OC(=O)[C@@H]3CCCCN3C(=O)C(=O)C(C)(C)COC(=O)C=CCCN(C)C(=O)[C@@H]3CCCN3C(=O)[C@H](COC(C)(C)C)N(C)C(=O)[C@H](c3ccccc3)NC(=O)[C@H](C)N(C)C(=O)COc3cc(F)cc2c3)cc1OC [Compound 1596] | – | – | – | Low (“Low” indicates a response greater than 0.6 times the activity relative to DMSO) | – |
